Experimental findings from US12030878B2 (BRISTOL-MYERS SQUIBB COMPANY, priority 2017, dated 2024) are described below.

Holding throughout (format): cell-based
One test deals with T1, human TLR8 (Homo sapiens, UniProt Q9NR97).
T1 construct: host or cells: HEK-Blue cells
T1 sequence (Q9NR97 27-1041): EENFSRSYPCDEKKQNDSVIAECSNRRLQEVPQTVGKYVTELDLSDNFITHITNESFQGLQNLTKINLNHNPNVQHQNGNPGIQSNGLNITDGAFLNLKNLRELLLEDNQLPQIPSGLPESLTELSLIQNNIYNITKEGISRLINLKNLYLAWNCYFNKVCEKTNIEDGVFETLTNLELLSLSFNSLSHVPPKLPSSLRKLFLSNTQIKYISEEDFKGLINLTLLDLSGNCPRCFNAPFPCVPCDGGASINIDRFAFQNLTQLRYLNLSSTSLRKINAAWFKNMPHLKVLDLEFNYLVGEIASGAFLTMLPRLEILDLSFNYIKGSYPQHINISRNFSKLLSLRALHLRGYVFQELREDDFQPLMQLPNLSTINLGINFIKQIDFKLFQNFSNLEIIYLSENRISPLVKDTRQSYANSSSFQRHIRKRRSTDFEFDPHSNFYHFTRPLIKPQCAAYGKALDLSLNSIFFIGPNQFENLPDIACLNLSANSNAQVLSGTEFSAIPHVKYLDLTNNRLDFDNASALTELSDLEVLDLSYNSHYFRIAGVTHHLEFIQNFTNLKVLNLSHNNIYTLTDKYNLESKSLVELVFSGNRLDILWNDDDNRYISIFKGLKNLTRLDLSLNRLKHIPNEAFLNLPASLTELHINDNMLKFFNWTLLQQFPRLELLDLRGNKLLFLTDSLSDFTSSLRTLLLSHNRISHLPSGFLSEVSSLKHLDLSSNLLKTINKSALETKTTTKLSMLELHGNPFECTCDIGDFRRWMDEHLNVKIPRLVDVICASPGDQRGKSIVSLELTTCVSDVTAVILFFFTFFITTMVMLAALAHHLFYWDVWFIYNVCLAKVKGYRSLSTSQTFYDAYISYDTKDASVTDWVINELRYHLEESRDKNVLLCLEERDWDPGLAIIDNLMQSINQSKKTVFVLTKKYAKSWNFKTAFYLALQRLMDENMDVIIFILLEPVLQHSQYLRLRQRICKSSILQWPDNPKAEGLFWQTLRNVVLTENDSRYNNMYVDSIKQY
The test can be described thus: TLR8 inhibition reporter assay (HEK-Blue SEAP). The conditions noted are these: HEK-Blue cells overexpressing human TLR8, stimulated with R848 15.9 μM, 22 hour incubation. The method in brief:
(§1)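 Stimulation followed a 30 min room-temperature compound exposure (final 0.05 nM-50 μM): TLR7 cells with 7.5 μM gardiquimod, TLR8 with 15.9 μM R848, TLR9 with 5 nM ODN2006. After 22 h at 37 °C, secreted alkaline phosphatase was detected colorimetrically and inhibition calculated against DMSO and known-inhibitor controls.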
(A reporter such as luciferase makes a cellular process visible.)

A further test has as its target T2, human TLR7 (Homo sapiens, UniProt Q9NYK1).
T2 construct: host or cells: HEK-Blue cells
T2 sequence (Q9NYK1 27-1049): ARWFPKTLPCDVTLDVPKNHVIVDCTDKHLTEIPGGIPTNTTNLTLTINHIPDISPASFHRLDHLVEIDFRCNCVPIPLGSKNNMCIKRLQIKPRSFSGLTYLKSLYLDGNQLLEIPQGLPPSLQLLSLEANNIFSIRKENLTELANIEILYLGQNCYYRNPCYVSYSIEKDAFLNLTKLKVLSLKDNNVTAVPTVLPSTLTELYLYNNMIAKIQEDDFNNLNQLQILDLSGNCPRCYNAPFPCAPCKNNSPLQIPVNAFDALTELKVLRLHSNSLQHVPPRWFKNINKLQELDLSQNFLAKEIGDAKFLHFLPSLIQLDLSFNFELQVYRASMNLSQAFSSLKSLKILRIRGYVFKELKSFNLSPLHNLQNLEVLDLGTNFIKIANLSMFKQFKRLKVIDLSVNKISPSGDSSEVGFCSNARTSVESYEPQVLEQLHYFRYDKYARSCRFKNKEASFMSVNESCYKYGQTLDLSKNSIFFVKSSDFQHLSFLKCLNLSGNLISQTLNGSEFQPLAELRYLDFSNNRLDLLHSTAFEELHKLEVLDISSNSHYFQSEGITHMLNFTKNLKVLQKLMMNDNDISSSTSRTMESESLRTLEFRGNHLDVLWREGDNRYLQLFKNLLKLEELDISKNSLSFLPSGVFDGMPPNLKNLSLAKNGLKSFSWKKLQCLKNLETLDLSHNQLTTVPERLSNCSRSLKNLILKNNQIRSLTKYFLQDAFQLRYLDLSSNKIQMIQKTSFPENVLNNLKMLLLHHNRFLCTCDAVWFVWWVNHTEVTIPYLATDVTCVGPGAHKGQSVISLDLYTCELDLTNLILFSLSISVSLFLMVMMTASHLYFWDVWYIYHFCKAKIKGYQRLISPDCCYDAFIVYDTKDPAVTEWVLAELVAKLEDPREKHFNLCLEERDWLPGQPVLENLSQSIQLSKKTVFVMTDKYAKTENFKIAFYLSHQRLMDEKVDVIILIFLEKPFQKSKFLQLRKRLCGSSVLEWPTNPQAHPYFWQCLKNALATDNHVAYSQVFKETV
Nature of the test: TLR7 inhibition reporter assay (HEK-Blue SEAP). The conditions noted are these: HEK-Blue cells overexpressing human TLR7, stimulated with gardiquimod 7.5 μM, 22 hour incubation. In short, it runs like this: as §1

Another test deals with T3, human TLR9 (Homo sapiens, UniProt Q9NR96).
T3 construct: host or cells: HEK-Blue cells
T3 sequence (Q9NR96 26-1032): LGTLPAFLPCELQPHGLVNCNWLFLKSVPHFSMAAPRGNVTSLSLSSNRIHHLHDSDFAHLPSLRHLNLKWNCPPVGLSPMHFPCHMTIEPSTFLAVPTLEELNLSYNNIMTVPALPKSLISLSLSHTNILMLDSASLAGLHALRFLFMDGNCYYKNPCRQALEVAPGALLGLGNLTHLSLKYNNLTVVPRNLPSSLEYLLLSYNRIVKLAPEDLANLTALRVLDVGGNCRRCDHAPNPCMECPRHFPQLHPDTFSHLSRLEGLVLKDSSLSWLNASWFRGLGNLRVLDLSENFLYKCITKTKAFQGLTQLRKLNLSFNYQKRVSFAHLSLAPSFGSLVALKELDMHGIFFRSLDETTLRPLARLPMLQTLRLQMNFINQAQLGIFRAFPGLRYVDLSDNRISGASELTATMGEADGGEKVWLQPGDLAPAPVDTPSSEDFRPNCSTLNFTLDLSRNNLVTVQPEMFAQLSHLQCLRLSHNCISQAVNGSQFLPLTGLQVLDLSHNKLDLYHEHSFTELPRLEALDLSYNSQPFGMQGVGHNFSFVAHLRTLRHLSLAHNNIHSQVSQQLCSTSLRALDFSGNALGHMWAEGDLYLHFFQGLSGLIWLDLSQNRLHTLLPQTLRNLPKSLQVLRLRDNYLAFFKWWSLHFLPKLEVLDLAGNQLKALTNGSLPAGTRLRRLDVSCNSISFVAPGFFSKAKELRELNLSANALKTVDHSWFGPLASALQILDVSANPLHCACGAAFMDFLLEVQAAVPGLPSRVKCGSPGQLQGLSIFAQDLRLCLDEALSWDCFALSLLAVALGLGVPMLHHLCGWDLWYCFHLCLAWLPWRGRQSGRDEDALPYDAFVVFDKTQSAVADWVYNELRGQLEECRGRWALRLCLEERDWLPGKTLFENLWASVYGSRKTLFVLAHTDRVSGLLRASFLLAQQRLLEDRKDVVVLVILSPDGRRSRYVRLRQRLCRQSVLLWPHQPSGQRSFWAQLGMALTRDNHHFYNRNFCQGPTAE
Nature of the test: TLR9 inhibition reporter assay (HEK-Blue SEAP). The conditions noted are these: HEK-Blue cells overexpressing human TLR9, stimulated with ODN2006 5 nM, 22 hour incubation. The method in brief:
as §1

For orientation: IC50 means the concentration that gives 50% inhibition.

Take `Cc1cc(-c2[nH]c3ccc(OCC4CCN(CCS(C)(=O)=O)CC4)cc3c2C(C)C)cn2ncnc12` [Example 91, 6-(3-isopropyl-5-((1-(2-(methylsulfonyl)ethyl)piperidin-4-yl)methoxy)-1H-indol-2-yl)-8-methyl-[1,2,4]triazolo[1,5-a]pyridine]: the values for the IC50 against human TLR8, on human TLR7 and against human TLR9 were 1 nM, 0.7 nM and 9580 nM, respectively.
For `Cc1cc(-c2[nH]c3ccc(OCC4CN(CCS(C)(=O)=O)C4)cc3c2C(C)C)cn2ncnc12` [Example 92, 6-(3-isopropyl-5-((1-(2-(methylsulfonyl)ethyl)azetidin-3-yl)methoxy)-1H-indol-2-yl)-8-methyl-[1,2,4]triazolo[1,5-a]pyridine], the IC50 against human TLR8 was 3.8 nM; against human TLR7, 1.2 nM; at human TLR9 it was 6040 nM.
Regarding `Cc1cc(-c2[nH]c3ccc(OCC4CCCNC4)cc3c2C(C)C)cc(C)n1` (stereo not drawn) [Example 94, 2-(2,6-dimethylpyridin-4-yl)-3-isopropyl-5-(piperidin-3-ylmethoxy)-1H-indole], the half-maximal inhibitory concentration (IC50) against human TLR8 amounted to 4.7 nM; against human TLR7, 3 nM; against human TLR9 it was 243 nM.
With `Cc1cc(-c2[nH]c3ccc(OC4CCN(C(=O)CN(C)C)CC4)cc3c2C(C)C)cc(C)n1` [Example 95, 2-(dimethylamino)-1-(4-((2-(2,6-dimethylpyridin-4-yl)-3-isopropyl-1H-indol-5-yl)oxy)piperidin-1-yl)ethanone], the half-maximal inhibitory concentration (IC50) came to 10.4 nM against human TLR8, 0.5 nM on human TLR7 and 419 nM on human TLR9.
For the compound `Cc1cc(-c2[nH]c3ccc(OCC4CCN(C(=O)CN(C)C)CC4)cc3c2C(C)C)cc(C)n1` [Example 96, 2-(dimethylamino)-1-(4-(((2-(2,6-dimethylpyridin-4-yl)-3-isopropyl-1H-indol-5-yl)oxy)methyl)piperidin-1-yl)ethan-1-one], the IC50 is 9.8 nM against human TLR8, 2.6 nM against human TLR7 and 346 nM on human TLR9.
As to `Cc1cc(-c2[nH]c3ccc(OCC4CCN(C(=O)CN(C)C)CC4)cc3c2C(C)C)cn(C)c1=O` [Example 97, 5-(5-((1-(dimethylglycyl)piperidin-4-yl)methoxy)-3-isopropyl-1H-indol-2-yl)-1,3-dimethylpyridin-2(1H)-one], the results for the IC50 against human TLR8, against human TLR7 and against human TLR9 were 5.6 nM, 3.5 nM and 16800 nM, respectively.
Consider `Cc1cc(-c2[nH]c3ccc(O[C@H]4CCCN(C(=O)CN(C)C)C4)cc3c2C(C)C)cn(C)c1=O` [Example 98, (S)-5-(5-((1-(dimethylglycyl)piperidin-3-yl)oxy)-3-isopropyl-1H-indol-2-yl)-1,3-dimethylpyridin-2(1H)-one], for which the results for the IC50 against human TLR8, against human TLR7 and at human TLR9 were 16.5 nM, 7.6 nM and 11100 nM, respectively.
With `Cc1cc(-c2[nH]c3ccc(O[C@H]4CCCN(C(=O)CN(C)C)C4)cc3c2C(C)C)cn2ncnc12` [Example 99, (S)-2-(dimethylamino)-1-(3-((3-isopropyl-2-(8-methyl-[1,2,4]triazolo[1,5-a]pyridin-6-yl)-1H-indol-5-yl)oxy)piperidin-1-yl)ethan-1-one], the IC50 against human TLR8 came to 25.2 nM; against human TLR7, 3.1 nM; against human TLR9, 4870 nM.
For `Cc1cc(-c2[nH]c3ccc(OC4CCN(C(=O)CN(C)C)CC4)cc3c2C(C)C)cn(C)c1=O` [Example 100, 5-(5-((1-(dimethylglycyl)piperidin-4-yl)oxy)-3-isopropyl-1H-indol-2-yl)-1,3-dimethylpyridin-2(1H)-one], in that order: 10.4 nM, 4.1 nM and 9840 nM.
On to `Cc1cc(-c2[nH]c3ccc(OC4CCN(C(=O)CN(C)C)CC4)cc3c2C(C)C)cn2ncnc12` [Example 101, 2-(dimethylamino)-1-(4-((3-isopropyl-2-(8-methyl-[1,2,4]triazolo[1,5-a]pyridin-6-yl)-1H-indol-5-yl)oxy)piperidin-1-yl)ethan-1-one], for which the IC50 on human TLR8 came to 35.9 nM; on human TLR7 it was 2.3 nM; at human TLR9 it was 9750 nM.
On to `Cc1cc(-c2[nH]c3ccc(OCC4CCN(C(=O)CN(C)C)CC4)cc3c2C(C)C)cn2ncnc12` [Example 102, 2-(dimethylamino)-1-(4-(((3-isopropyl-2-(8-methyl-[1,2,4]triazolo[1,5-a]pyridin-6-yl)-1H-indol-5-yl)oxy)methyl)piperidin-1-yl)ethan-1-one], for which the IC50 against human TLR8 stood at 5 nM; on human TLR7, 0.3 nM; against human TLR9 it was 2570 nM.
As for `Cc1c(-c2[nH]c3ccc(OCC4CCN(C(=O)CN(C)C)CC4)cc3c2C(C)C)cn(C)c(=O)c1C` [Example 103, 5-(5-((1-(dimethylglycyl)piperidin-4-yl)methoxy)-3-isopropyl-1H-indol-2-yl)-1,3,4-trimethylpyridin-2(1H)-one], the IC50 against human TLR8 was determined as 14.9 nM; on human TLR7, 12.3 nM; against human TLR9 it was 5400 nM.
